Test system: PKC (mix of isoforms)
Experiment: PKC assay (counter screen)
Format: biochemical
Conditions: myelin basic protein substrate; read-out: Counter screens IC50 (μM) PKC
Experimental: Each PKC assay consists of the following components:
Final assay concentrations were as follows: 0.25 mM EGTA, 0.4 mM CaCl, 20 mM Tris pH 7.5, 10 mM MgCl, 1 mM 2-mercaptoethanol, 0.32 mg/ml phosphatidylserine, 0.032 mg/ml diacylglycerol, 10 μM ^33P-ATP, 70 μg/ml MBP, 10 ng/ml PKC, 0.1 mg/ml BSA.
Assays are performed using 96 deep well assay plates. In each assay well 10 μl of solvent control or appropriate inhibitor dilution with 5 μl ^33P-ATP (components #5 and #3) were premixed. In a separate tube, a mixture containing equal volumes of components #1, #2, #4, and #6 was prepared. The assay reaction was initiated, by adding 35 μl of the components #1, #2, #4, and #6 mixture to wells containing ^33P-ATP and inhibitor. The liquid in the assay wells was thoroughly mixed and the assay reactions incubated for 20 minutes at room temperature. The reactions were stopped by adding 100 mM EDTA (50 μl) and 100 mM sodium pyrophosphate (50 μl) and mixing. Phosphorylated MBP was collected on PVDF membranes in 96 well filter plates and quantitated by scintillation counting.

SMILES | IC50
CN(C)CC(C)(C)CNc1nn2c(-c3ccccc3)nnc2c2ccccc12 [Compound 1, 2,2,N,N-tetramethyl-N-(3-phenyl-[1,2,4]triazolo[3,4-α]phthalazin-6-yl)-propane-1,3-diamine] | > 40 µM
COc1ccc(-c2nnc3c4ccccc4c(NCC(C)(C)CN(C)C)nn23)cc1 [Compound 2, N′-[3-(4-Methoxy-phenyl)-[1,2,4]triazolo[4,3-α]phthalazin-6-yl)-2,2,N,N-tetramethyl-propane-1,3-diamine] | > 40 µM

Reference: patent US6958334B2, “Inhibitors of Akt activity” (Merck & Co., Inc., priority 2001, dated 2005)
